From patent US8735414B2 (priority 2009, dated 2014)
pIC50: −log10 of the molar value.

Columns and labels:
[1] = system: bicistronic HCV replicon (replicon RNA, GenBank Accession No. AJ242654); assay: HCV Replicon Assay; format: cell-based; conditions: Hepatitis C virus, 72 h, read-out: Replicon IC50

Structure (SMILES) | pIC50 [1] | melting point [°C]
N#Cc1c(-c2ncc(S(=O)(=O)NC(CF)CF)cn2)n(C2CCC2)c2cc(Cl)ccc12 [compound 176, 2-(6-chloro-3-cyano-1-cyclobutyl-1H-indol-2-yl)-N-(1,3-difluoropropan-2-yl)pyrimidine-5-sulfonamide] | > 6.30 | 243 to 246
C[C@@H](NS(=O)(=O)c1ccc(-c2c(C#N)c3ccc(F)cc3n2C2CCC2)nc1)C(F)(F)F [compound 215, 6-(3-cyano-1-cyclobutyl-6-fluoro-1H-indol-2-yl)-N-[(2R)-1,1,1-trifluoropropan-2-yl]pyridine-3-sulfonamide] | 5.70 to 6.30 | 178 to 180
C[C@H](NS(=O)(=O)c1ccc(-c2c(C#N)c3ccc(C(F)(F)F)cc3n2-c2ccccn2)nc1)C(F)(F)F [compound 952, 6-[3-cyano-1-(pyridin-2-yl)-6-(trifluoromethyl)-1H-indol-2-yl]-N-[(2S)-1,1,1-trifluoropropan-2-yl]pyridine-3-sulfonamide] | > 6.30 | 173 to 176
C[C@H](NS(=O)(=O)c1ccc(-c2c(C#N)c3cc(CC(F)F)ccc3n2C2CCC2)nc1)C(F)(F)F [compound 702, 6-[3-cyano-1-cyclobutyl-5-(2,2-difluoroethyl)-1H-indol-2-yl]-N-[(2S)-1,1,1-trifluoropropan-2-yl]pyridine-3-sulfonamide] | > 6.30 | 143 to 147
C[C@H](NS(=O)(=O)c1ccc(-c2c(C#N)c3cc(F)ccc3n2-c2ncccn2)nc1)C(F)(F)F [compound 601, 6-[3-cyano-5-fluoro-1-(pyrimidin-2-yl)-1H-indol-2-yl]-N-[(2S)-1,1,1-trifluoropropan-2-yl]pyridine-3-sulfonamide] | > 6.30 | 201 to 203
Cc1cc2c(cc1F)c(C#N)c(-c1ccc(S(=O)(=O)N[C@@H](C)C(F)(F)F)cn1)n2-c1cncnc1 [compound 894, 6-[3-cyano-5-fluoro-6-methyl-1-(pyrimidin-5-yl)-1H-indol-2-yl]-N-[(2S)-1,1,1-trifluoropropan-2-yl]pyridine-3-sulfonamide] | > 6.30 | 198 to 202
CCc1cc2c(cc1F)c(C(N)=O)c(-c1ccc(S(=O)(=O)NC(C)(C)C)cn1)n2-c1ccccc1 [compound 1109, 2-[5-(tert-butylsulfamoyl)pyridin-2-yl]-6-ethyl-5-fluoro-1-phenyl-1H-indole-3-carboxamide] | > 6.30 | 237.9 to 238.9
Cc1cc2c(cc1F)c(C#N)c(-c1ccc(S(=O)(=O)N[C@@H](C)C(F)(F)F)cn1)n2-c1nc(C#N)co1 [compound 1074, 6-[3-cyano-1-(4-cyano-1,3-oxazol-2-yl)-5-fluoro-6-methyl-1H-indol-2-yl]-N-[(2S)-1,1,1-trifluoropropan-2-yl]pyridine-3-sulfonamide] | > 6.30 | 212.2 to 216.9
N#Cc1c(-c2ccc(S(=O)(=O)NC(CF)CF)cn2)n(C2CCCC2)c2ccc(OC(F)(F)F)cc12 [compound 34, 6-[3-cyano-1-cyclopentyl-5-(trifluoromethoxy)-1H-indol-2-yl]-N-(1,3-difluoropropan-2-yl)pyridine-3-sulfonamide] | > 6.30 | 159 to 160
COc1ccc2c(C#N)c(-c3ccc(S(=O)(=O)N[C@H](C)C(F)(F)F)cn3)n(C3CCCCC3)c2c1 [compound 518, 6-(3-cyano-1-cyclohexyl-6-methoxy-1H-indol-2-yl)-N-[(2R)-1,1,1-trifluoropropan-2-yl]-pyridine-3-sulfonamide] | > 6.30 | 198 to 204
C[C@H](NS(=O)(=O)c1ccc(-c2c(C#N)c3ccc(C(F)F)cc3n2C2CCC2)nc1)C1CC1 [compound 335, 6-[3-cyano-1-cyclobutyl-6-(difluoromethyl)-1H-indol-2-yl]-N-[(1S)-1-cyclopropylethyl]pyridine-3-sulfonamide] | > 6.30 | 182 to 189
N#Cc1c(-c2ccc(S(=O)(=O)NC(CF)CF)cn2)n(C2CCCC2)c2cc(OC(F)(F)F)ccc12 [compound 70, 6-[3-cyano-1-cyclopentyl-6-(trifluoromethoxy)-1H-indol-2-yl]-N-(1,3-difluoropropan-2-yl)pyridine-3-sulfonamide] | > 6.30 | 141 to 143
Cc1ccc2c(c1)c(C#N)c(-c1ccc(S(=O)(=O)N[C@@H](C)C3CC3)cn1)n2C1CCCCC1 [compound 606, 6-(3-cyano-1-cyclohexyl-5-methyl-1H-indol-2-yl)-N-[(1S)-1-cyclopropylethyl]pyridine-3-sulfonamide] | > 6.30 | 169 to 174
CCc1cc(OC)c2c(C#N)c(-c3ccc(S(=O)(=O)N[C@@H](C)C(F)(F)F)cn3)n(C3CCC3)c2c1 [compound 858, 6-(3-cyano-1-cyclobutyl-6-ethyl-4-methoxy-1H-indol-2-yl)-N-[(2S)-1,1,1-trifluoropropan-2-yl]pyridine-3-sulfonamide] | 5.70 to 6.30 | 187 to 188
Cc1cc2c(cc1F)c(C#N)c(-c1ccc(S(=O)(=O)N[C@@H](C)C(F)(F)F)cn1)n2-c1ccnc(F)c1 [compound 1013, 6-[3-cyano-5-fluoro-1-(2-fluoropyridin-4-yl)-6-methyl-1H-indol-2-yl]-N-[(2S)-1,1,1-trifluoropropan-2-yl]pyridine-3-sulfonamide] | > 6.30 | 243.4 to 246.9
NC(=O)c1c(-c2ccc(S(=O)(=O)NC3(C(F)(F)F)CC3)cn2)n(C2CCC2)c2cc(OC(F)F)c(F)cc12 [compound 809, 1-cyclobutyl-6-(difluoromethoxy)-5-fluoro-2-(5-{[1-(trifluoromethyl)cyclopropyl]sulfamoyl}pyridin-2-yl)-1H-indole-3-carboxamide] | > 6.30 | 197 to 200
Cc1cc2c(cc1F)c(C#N)c(-c1ccc(S(=O)(=O)NC(C)(C)C)cn1)n2C1CCC1 [compound 651, N-tert-butyl-6-(3-cyano-1-cyclobutyl-5-fluoro-6-methyl-1H-indol-2-yl)pyridine-3-sulfonamide] | > 6.30 | 223 to 228
Cc1ccc2c(c1)c(C#N)c(-c1ncc(S(=O)(=O)NC(C)C)cn1)n2C1CCCC1 [compound 159, 2-(3-cyano-1-cyclopentyl-5-methyl-1H-indol-2-yl)-N-(propan-2-yl)pyrimidine-5-sulfonamide] | > 6.30 | 193 to 198
Cc1cc2c(cc1F)c(C(=O)O)c(-c1ccc(S(=O)(=O)NC(C)(C)C(F)(F)F)cn1)n2C1CCCC1 [compound 765, 1-cyclopentyl-5-fluoro-6-methyl-2-{5-[(1,1,1-trifluoro-2-methylpropan-2-yl)sulfamoyl]pyridin-2-yl}-1H-indole-3-carboxylic acid] | > 6.30 | 233 to 234
CC(C)NS(=O)(=O)c1cnc(-c2c(C#N)c3ccc(C(C)C)cc3n2C2CCC2)nc1 [compound 185, 2-[3-cyano-1-cyclobutyl-6-(propan-2-yl)-1H-indol-2-yl]-N-(propan-2-yl)pyrimidine-5-sulfonamide] | > 6.30 | 220 to 222
CCc1cc2c(cc1F)c(C#N)c(-c1ccc(S(=O)(=O)N[C@@H](C)C(F)(F)F)cn1)n2-c1cncc(Cl)c1 [compound 983, 6-[1-(5-chloropyridin-3-yl)-3-cyano-6-ethyl-5-fluoro-1H-indol-2-yl]-N-[(2S)-1,1,1-trifluoropropan-2-yl]pyridine-3-sulfonamide] | > 6.30 | 107 to 109
CCc1cc2c(cc1F)c(C#N)c(-c1ccc(S(=O)(=O)NC(C)(C)C)cn1)n2-c1cnccn1 [compound 899, N-tert-butyl-6-[3-cyano-6-ethyl-5-fluoro-1-(pyrazin-2-yl)-1H-indol-2-yl]pyridine-3-sulfonamide] | > 6.30 | 196 to 201
Cc1ccc2c(c1)c(C#N)c(-c1ccc(S(=O)(=O)N[C@@H](C)C(F)(F)F)cn1)n2C1CCCC1 [compound 345, 6-(3-cyano-1-cyclopentyl-5-methyl-1H-indol-2-yl)-N-[(2S)-1,1,1-trifluoropropan-2-yl]pyridine-3-sulfonamide] | > 6.30 | 195 to 200
C[C@H](NS(=O)(=O)c1ccc(-c2c(C#N)c3ccc(CC(F)F)cc3n2C2CCCC2)nc1)C(F)(F)F [compound 595, 6-[3-cyano-1-cyclopentyl-6-(2,2-difluoroethyl)-1H-indol-2-yl]-N-[(2S)-1,1,1-trifluoropropan-2-yl]pyridine-3-sulfonamide] | > 6.30 | 181 to 189
CCc1ccc2c(C#N)c(-c3ccc(S(=O)(=O)NC(CF)CF)cn3)n(C3CCC3)c2c1 [compound 48, 6-(3-cyano-1-cyclobutyl-6-ethyl-1H-indol-2-yl)-N-(1,3-difluoropropan-2-yl)pyridine-3-sulfonamide] | > 6.30 | 201 to 202
C[C@H](NS(=O)(=O)c1ccc(-c2c(C#N)c3ccc(CC(F)F)cc3n2C2CCC2)nc1)C1CC1 [compound 590, 6-[3-cyano-1-cyclobutyl-6-(2,2-difluoroethyl)-1H-indol-2-yl]-N-[(1S)-1-cyclopropylethyl]pyridine-3-sulfonamide] | > 6.30 | 146 to 155
N#Cc1c(-c2ncc(S(=O)(=O)NC(CF)CF)cn2)n(CC2CC2)c2ccc(Cl)cc12 [compound 221, 2-[5-chloro-3-cyano-1-(cyclopropylmethyl)-1H-indol-2-yl]-N-(1,3-difluoropropan-2-yl)pyrimidine-5-sulfonamide] | > 6.30 | 245 to 250
COc1ccc2c(C#N)c(-c3ccc(S(=O)(=O)N[C@@H](C)C(F)(F)F)cn3)n(C3CCC3)c2c1 [compound 427, 6-(3-cyano-1-cyclobutyl-6-methoxy-1H-indol-2-yl)-N-[(2S)-1,1,1-trifluoropropan-2-yl]pyridine-3-sulfonamide] | > 6.30 | 206 to 212
